The assay deals with SRS-A Biosynthesis (antigen-induced bronchoconstriction). The assay is described as follows: In Vivo Screening Procedure for SRS-A Synthesis Inhibitors in Guinea Pigs. Conditions: 10 mg/kg iv; guinea pig. An excerpt:
Paralyzed, artifically ventilated, actively sensitized guinea pigs are pretreated with indomethacin (to divert the flow of endogenous arachidonic acid through the lipoxygenase pathway), pyrilamine maleate (to block any bronchoconstriction due to released histamine) and […] (to enhance the sensitivity of the guinea pig bronchoconstriction to SRS-A) prior to challenging the animal with antigen. Under these conditions the resulting antigen-induced bronchoconstriction has been characterized as being attributable to the synthesis and release of SRS-A in the guinea pig lung. Test compounds are initially studied for their inhibitory properties in this test system by the intravenous route (at 10 mg/kg).

Take `CC(C)c1ccc2ncn(/C=C/C(=O)NCCc3ccccn3)c(=O)c2c1`: the “% Inhibition SRS-A Biosynthesis” value amounted to 56%.

Turning to `CC(C)c1ccc2ncn(/C=C/C(=O)NCCc3ccncc3)c(=O)c2c1`, the “% Inhibition SRS-A Biosynthesis” value was 57%.

`CC(C)c1ccc2ncn(/C=C/C(=O)NCCCCc3ccccn3)c(=O)c2c1` [drawing 25]: the “% Inhibition SRS-A Biosynthesis” value amounted to 59%.

These data come from US4599336A, “Derivatives of (E)-3-(4-oxo-4H-quinazolin-3-yl)-2-propenamide” (Hoffmann-La Roche Inc., priority 1983, dated 1986).
